The values below come from patent US12350270B2, “Antimalarial agents” (Merck Sharp & Dohme LLC, priority 2019, dated 2025).

Test [1] has as its system parasites (ring stage, in human red blood cell culture). Put plainly: Parasite LDH growth assay (antiparasite potency, Parasite Assay). In kind it is cell-based, Plasmodium falciparum. To be noted: 0.7% rings, 2% haematocrit, 72 hours at 37° C., LDH readout of parasite growth. In short, it runs like this:
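Ring-stage parasites at 0.7% parasitemia and 2% haematocrit, in RPMI-Hepes/bicarbonate with 5% heat-inactivated human serum and 0.5% albumax, were added to compound-containing medium. Cultures grew 72 h at 37 °C in gassed humidified boxes. Plates were then frozen overnight at −80 °C, thawed 4 h, and growth was measured by LDH assay.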

Test [2] concerns the target T1, PMX (plasmepsin X) (Plasmodium falciparum, UniProt Q8IAS0).
T1 construct: endogenous in cells
The following applies: negative control, literature (Salmon et al. 2001); cited from earlier work.

Test [3] deals with PMIX (plasmepsin IX). Put plainly: Inhibition of PMIX function in parasite extracts: cleavage of PMIX substrates RAP1 and ASP, and PMIX autoprocessing. In kind it is cell-based, P. falciparum. The procedure:
To confirm that Example 1 was a dual inhibitor of PMX and PMIX function, the ability of this compound to inhibit cleavage of the known PMIX substrate Rhoptry Associated Protein 1 (RAP1) in parasite extracts was tested (Pino et al., 2017). RAP1 is a merozoite rhoptry protein that is localized to the parasitophorous vacuole after invasion and processed by both PMIX and SUB1 (Pino et al., 2017). […] RAP1 was not released into the parasite supernatant because it was deposited in the parasitophorous vacuole during the invasion process (Baldi, D., Andrews, K., Waller, R., Roos, D., Howard, R., Crabb, B. and Cowman, A. (2000)). RAP1 controls rhoptry targeting of RAP2 in the malaria parasite Plasmodium falciparum. Embo Journal 19, 2435-2443.
The development of Example 1 as a PMIX/PMX dual inhibitor of the P. falciparum parasite has allowed for the analysis of the function of these aspartic acid proteases. To do this, PMIX was processed to a 55 kDa (p55) protein and this was not inhibited by E64.

Setting [4] is: Plasmodium falciparum, Erythrocyte, 72 h.

pEC50: −log10 of the molar value.

T1 sequence (Q8IAS0 222-573): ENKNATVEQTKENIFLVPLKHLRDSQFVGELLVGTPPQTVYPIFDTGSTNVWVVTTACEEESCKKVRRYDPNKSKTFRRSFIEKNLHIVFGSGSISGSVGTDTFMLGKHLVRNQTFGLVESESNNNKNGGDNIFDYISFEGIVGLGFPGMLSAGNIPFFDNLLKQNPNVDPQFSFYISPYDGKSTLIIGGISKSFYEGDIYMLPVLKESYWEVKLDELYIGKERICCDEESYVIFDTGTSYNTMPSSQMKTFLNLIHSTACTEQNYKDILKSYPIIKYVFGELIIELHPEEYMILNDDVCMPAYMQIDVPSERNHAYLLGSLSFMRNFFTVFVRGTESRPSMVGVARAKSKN

`CCC1(CC)CC(=O)N(C2c3cc(C(=O)N[C@@H]4c5ccccc5C[C@@]4(C)O)ccc3OC2(COC)COC)C(=N)N1` (stereo partly drawn) [Example 297, 3-(4,4-diethyl-2-imino-6-oxo-hexahydropyrimidin-1-yl)-N-[(1R,2R)-2-hydroxy-2-methyl-indan-1-yl]-2,2-bis(methoxymethyl)-3H-benzofuran-5-carboxamide] gave a pEC50 in test [1] (setting [4]) of 6.62.

`CCC1(CC)CC(=O)N([C@H]2c3cc(C(=O)N[C@@H]4c5ccccc5OC(C)(C)[C@H]4O)ccc3OC[C@H]2COC)C(=N)N1` [Example 298, (3R,4R)-4-(4,4-diethyl-2-imino-6-oxotetrahydropyrimidin-1(2H)-yl)-N-((3S,4R)-3-hydroxy-2,2-dimethylchroman-4-yl)-3-(methoxymethyl)chromane-6-carboxamide] had a pEC50 in test [1] (setting [4]) of 9.30.

`CCC1(CC)CC(=O)N([C@H]2c3cc(C(=O)N[C@@H]4c5ccccc5OC(C)(C)[C@H]4O)ccc3OC[C@@H]2COC)C(=N)N1` [Example 299, (3S,4R)-4-(4,4-diethyl-2-imino-6-oxo-hexahydropyrimidin-l-yl)-N-[(3S,4R)-3-hydroxy-2,2-dimethyl-chroman-4-yl]-3-(methoxymethyl)chromane-6-carboxamide] had a pEC50 in test [1] (setting [4]) of 9.10.

As for `CC[C@]1(C)CC(=O)N([C@@H]2C[C@@H](COC(F)F)Oc3ccc(C(=O)N[C@@H]4c5ccccc5OC[C@@]4(C)O)cc32)C(=N)N1` [Example 300, (2S,4R)-2-(difluoromethoxymethyl)-4-[(4R)-4-ethyl-2-imino-4-methyl-6-oxo-hexahydropyrimidin-1-yl]-N-[(3S,4R)-3-hydroxy-3-methyl-chroman-4-yl]chromane-6-carboxamide], the pEC50 in test [1] (setting [4]) was 8.42.

As for `CCC1(CC)CC(=O)N([C@H]2c3cc(C(=O)N[C@@H]4c5cc(C#N)ccc5OC[C@@]4(C)O)ccc3OC[C@H]2COC)C(=N)N1` [Example 301, (3R,4R)-N-[(3S,4R)-6-cyano-3-hydroxy-3-methyl-chroman-4-yl]-4-(4,4-diethyl-2-imino-6-oxo-hexahydropyrimidin-1-yl)-3-(methoxymethyl)chromane-6-carboxamide], in test [1] (setting [4]), the negative logarithm of the EC50 (pEC50) was 8.74.

On to `CCC1(CC)CC(=O)N(C2CC(C(=O)N(C)C)Oc3ccc(C(=O)N[C@H]4CC(C)(C)Oc5ccccc54)cc32)C(=N)N1` (stereo partly drawn) [Example 302, 4-(4,4-diethyl-2-imino-6-oxo-hexahydropyrimidin-1-yl)-N6-[(4S)-2,2-dimethylchroman-4-yl]-N2,N2-dimethyl-chromane-2,6-dicarboxamide], for which, in test [1] (setting [4]), the negative logarithm of the EC50 (pEC50) was 8.77. This pEC50 and that of the molecule before are within 0.2 log units of each other.

In the case of `CCC1(CC)CC(=O)N(C2CC(C(=O)N(C)C)Oc3ccc(C(=O)N[C@@H]4c5ccccc5OC[C@@]4(C)O)cc32)C(=N)N1` (stereo partly drawn) [Example 303, 4-(4,4-diethyl-2-imino-6-oxo-hexahydropyrimidin-1-yl)-N6-[(3S,4R)-3-hydroxy-3-methyl-chroman-4-yl]-N2,N2-dimethyl-chromane-2,6-dicarboxamide], the pEC50 in test [1] (setting [4]) was 7.29. This pEC50 is 1.48 log units lower than that of the molecule before.

Turning to `CCC1(CC)CC(=O)N([C@H]2c3cc(C(=O)N[C@H]4CC(C)(C)Oc5ccccc54)ccc3OC2(COC)COC)C(=N)N1` [Example 304, (3S)-3-(4,4-diethyl-2-imino-6-oxo-hexahydropyrimidin-1-yl)-N-[(4S)-2,2-dimethylchroman-4-yl]-2,2-bis(methoxymethyl)-3H-benzofuran-5-carboxamide], in test [1] (setting [4]), the pEC50 was 8.25.

In the case of `CCC1(CC)CC(=O)N(C2c3cc(C(=O)N[C@@H]4c5ccccc5OC[C@@]4(C)O)ccc3OC2(COC)COC)C(=N)N1` (stereo partly drawn) [Example 305, 3-(4,4-diethyl-2-imino-6-oxo-hexahydropyrimidin-l-yl)-N-[(3S,4R)-3-hydroxy-3-methyl-chroman-4-yl]-2,2-bis(methoxymethyl)-3H-benzofuran-5-carboxamide], the pEC50 in test [1] (setting [4]) was 7.12. Compared with the last molecule, the pEC50 is 1.13 log units lower.

In turn, `CCC1(CC)CC(=O)N(C2CC(C(=O)N(C)C)Oc3ccc(C(=O)N[C@@H]4c5ccccc5OC(C)(C)[C@H]4O)cc32)C(=N)N1` (stereo partly drawn) [Example 306, 4-(4,4-diethyl-2-imino-6-oxo-hexahydropyrimidin-1-yl)-N6-[(3S,4R)-3-hydroxy-2,2-dimethyl-chroman-4-yl]-N2,N2-dimethyl-chromane-2,6-dicarboxamide] gave a negative logarithm of the EC50 (pEC50) in test [1] (setting [4]) of 7.56.

For the molecule `CCC1(CC)CC(=O)N([C@H]2c3cc(C(=O)N[C@@H]4c5ccccc5OC(C)(C)[C@H]4O)ccc3OC2(COC)COC)C(=N)N1` [Example 307], in test [1] (setting [4]), the negative-log EC50 (pEC50) was 8.49.

With `CCC1(CC)CC(=O)N([C@@H]2C[C@@H](CCCCCCN)Oc3ccc(C(=O)N[C@H]4CC(C)(C)Oc5ccccc54)cc32)C(=N)N1` [Example 308, (2R,4R)-2-(6-aminohexyl)-4-(4,4-diethyl-2-imino-6-oxo-hexahydropyrimidin-1-yl)-N-[(4S)-2,2-dimethylchroman-4-yl]chromane-6-carboxamide], the negative logarithm of the EC50 (pEC50) in test [1] (setting [4]) is 7.39.

For `CCC1(CC)CC(=O)N([C@@H]2C[C@@H](CCCCCCNC(C)=O)Oc3ccc(C(=O)N[C@H]4CC(C)(C)Oc5ccccc54)cc32)C(=N)N1` [Example 309, (2R,4R)-2-(6-acetamidohexyl)-4-(4,4-diethyl-2-imino-6-oxo-hexahydropyrimidin-l-yl)-N-[(4S)-2,2-dimethylchroman-4-yl]chromane-6-carboxamide], in test [1] (setting [4]), the pEC50 is 8.49. Against the preceding molecule, the pEC50 is 1.10 log units higher.

The molecule `CCC1(CC)CC(=O)N([C@@H]2C[C@@H](COCCOCCOCCN)Oc3ccc(C(=O)N[C@H]4CC(C)(C)Oc5ccccc54)cc32)C(=N)N1` [Example 310, (2S,4R)-2-[2-[2-(2-aminoethoxy)ethoxy]ethoxymethyl]-4-(4,4-diethyl-2-imino-6-oxo-hexahydropyrimidin-1-yl)-N-[(4S)-2,2-dimethylchroman-4-yl]chromane-6-carboxamide] had a pEC50 in test [1] (setting [4]) of 6.68.

Regarding `CCC1(CC)CC(=O)N([C@@H]2C[C@@H](CCCCCCNC(=O)OC(C)(C)C)Oc3ccc(C(=O)N[C@H]4CC(C)(C)Oc5ccccc54)cc32)C(=N)N1` [Example 311, tert-butyl N-[6-[(2R,4R)-4-(4,4-diethyl-2-imino-6-oxo-hexahydropyrimidin-1-yl)-6-[[(4S)-2,2-dimethylchroman-4-yl]carbamoyl]chroman-2-yl]hexyl]carbamate], the negative logarithm of the EC50 (pEC50) in test [1] (setting [4]) is 8.62. This pEC50 is 1.94 log units higher than that of the molecule before.

On to `CCC1(CC)CC(=O)N([C@@H]2C[C@@H](COCCOCCOCCNC(C)=O)Oc3ccc(C(=O)N[C@H]4CC(C)(C)Oc5ccccc54)cc32)C(=N)N1` [Example 312, (2S,4R)-2-[2-[2-(2-acetamidoethoxy)ethoxy]ethoxymethyl] -4-(4,4-diethyl-2-imino-6-oxo-hexahydropyrimidin-1-yl)-N-[(4S)-2,2-dimethylchroman-4-yl]chromane-6-carboxamide], for which the pEC50 in test [1] (setting [4]) is 7.27. Against the preceding molecule, the pEC50 is 1.35 log units lower.

Take `CCC1(CC)CC(=O)N([C@H]2C[C@H](COCCOCCOCCNC(=O)OC(C)(C)C)Oc3ccc(C(=O)N[C@H]4CC(C)(C)Oc5ccccc54)cc32)C(=N)N1` [Example 313, tert-butyl N-[2-[2-[2-[[(2R,4S)-4-(4,4-diethyl-2-imino-6-oxo-hexahydropyrimidin-l-yl)-6-[[(4S)-2,2-dimethylchroman-4-yl]carbamoyl]chroman-2-yl]methoxy]ethoxy]ethoxy]ethyl]carbamate]: the negative-log EC50 (pEC50) in test [1] (setting [4]) was 6.59.

`CCC1(CC)CC(=O)N([C@@H]2C[C@@H](COCCOCCOCCNC(=O)OC(C)(C)C)Oc3ccc(C(=O)N[C@H]4CC(C)(C)Oc5ccccc54)cc32)C(=N)N1` [Example 314, tert-butyl N-[2-[2-[2-[[(2S,4R)-4-(4,4-diethyl-2-imino-6-oxo-hexahydropyrimidin-l-yl)-6-[[(4S)-2,2-dimethylchroman-4-yl]carbamoyl]chroman-2-yl]methoxy]ethoxy]ethoxy]ethyl]carbamate] gave a pEC50 in test [1] (setting [4]) of 8.14.

Regarding `CC(C)C[C@H](NC(=O)[C@H]1O[C@@H]1C(=O)O)C(=O)NCCCCN=C(N)N` [Example E64], the SERAS processing entry in test [2] is reported as “does not affect SERAS processing”. In test [3] (treated parasites), the “ASP cleavage (p87 to p47) by PMIX” value is on record as “processed into a 47 kDa polypeptide (p47)” and the “PMIX processing to 55 kDa (p55) protein (autocatalytic cleavage)” value is “not inhibited”. Also, in test [3] (treated parasites / merozoites), the “RAP1 processing (p87 to p82 and p69) by PMIX and SUB1” value was “processed normally by PMIX and SUB1”.

Take “(4R)-4-(4,4-diethyl-2-imino-6- oxo-hexahydropyrimidin-1- yl)-N-[2-(hydroxymethyl)- methyl-3H-benzofuran-3- yl]chromane-6-carboxamide [Example 176B]”: the pEC50 in test [1] was 8.11.

What is called pEC50 is the EC50 on a negative log10 scale, so that one unit is a factor of ten. A lower pEC50 goes with a high EC50.
